Experimental findings from patent US9834514B2, “Antibiotic sensitivity-restoring and photosensitive agents” (New Mexico Tech Research Foundation, priority 2015, dated 2017) are described below.

Each structure is given as a SMILES string.

Assay [1] has as its system efflux pumps of MRSA. In words: Fluorescent competition assay of compound 1 versus INF-55 and reserpine. To be noted: compound 1 at 5 μM. The format is binding. The method, then: INF-55 and reserpine, NorA EPIs, were used to compete with compound 1 for binding sites on MRSA. Since compound 1 is highly fluorescent, binding could be assessed by measuring the fluorescence at excitation wavelengths of 345 nm, 380 nm, 407 nm, and an emission wavelength of 508 nm. Fluorescent readings were taken every minute for 30 minutes at a lamp energy of 20,000 CW. MRSA cells (about 10^8 CFU/mL) were pelleted at 7500 rpm and resuspended in 1×PBS. The MRSA cells were then pretreated with the appropriate EPI at varying concentrations and incubated for 30 minutes at 37° C. at 150 rpm on a rotary shaker.
INF-55 (FIG. 2) and reserpine (FIG. 3) were added at 1 μM, 10 μM, 50 μM, and 100 μM. After incubation with the appropriate EPI, compound 1 was added at 5 μM and the samples were incubated for 10 minutes. The samples were then placed in a fluorescent plate reader for analysis. The controls used were as follows: 1×PBS, compound 1 (5 μM) in 1×PBS, each respective concentration of the EPI in 1×PBS, compound 1 (5 μM) added to MRSA cells, and each respective EPI added to MRSA cells. The instrument baseline fluorescence drift was corrected by subtracting the fluorescence measured at each time point for the 1×PBS control sample. The error bars represent data from three independent measurements.

Assay [2] concerns S. mutans Ward's 85W 2357. In words: Resensitization to antibiotics (log reduction, TABLE 29). The format is cell-based. To be noted: compound 1 μM; Light (2 min).
Assay [3] concerns the target T1, NorA efflux pumps in MRSA (Staphylococcus aureus, UniProt P0A0J7).
T1 construct: endogenous in cells
Kind of assay: Fluorescent binding assay of compound 1 with MRSA and S. aureus. To be noted: 1 μM and 10 μM; MRSA compared to S. aureus; FIG. 1. As for the experimental part: The error bars represent data from three independent measurements.
S. aureus and MRSA cells (about 10^8 CFU/mL) were treated with two doses of compound 1 (1 μM and 10 μM), and the cells were incubated at 37° C. for 15 minutes on a rotary shaker set at 150 rpm. After the incubation, the cells were transferred to a 96-well fluorescent plate reader and read every minute for 30 minutes at excitation wavelengths of 334 nm, 380 nm, and 407 nm, and an emission wavelength of 508 nm. The controls were: 1×PBS, compound 1 (1 μM and 10 μM) in 1×PBS, S. aureus in 1×PBS, and MRSA in 1×PBS.

Assay [4] has as its system S. aureus (ATCC No. 29213). In words: Light-activated killing, colony counts. It is filed as cell-based. The following applies: for Dark Toxicity: no light; for Light Toxicity: white light 2 minutes. As for the experimental part: (§1) Dose-dependent effects of treating bacteria with compound 1 and irradiation with white light were assessed by treating 10^8 CFU/mL of cells with compound 1, followed by irradiation with white light for 2 minutes. Compound 1 was added at a specific concentration to 1 mL of a 10^8 CFU/mL suspension of the respective bacterial cells, and the cells were incubated at 37° C. for approximately 45 minutes on a rotary shaker at 150 rpm. 0.5 mL of the cell suspension was removed and placed into the wells of a sterile ceramic drop plate, and then the cells were irradiated with white light from a Lumacare™ LC 122A light source for 2 minutes at a distance of approximately 3 cm. The time and distance of the light application delivered about 85 J/cm^2 of 400-700 nm light to the sample. After being irradiated, ten-fold dilutions were made of each cell sample. The dilutions were drip-streaked onto a tryptic soy agar (TSA) plate and incubated at 37° C. for 18-24 hours. Enumeration of bacteria was determined from the dilution, which produced a drip-streak containing approximately 30-300 colonies. After counting the colonies, the CFU/mL was calculated by applying the respective dilution factor and a factor of 100 to account for the 10 μL of sample taken. Appropriate controls were prepared, including cells with no treatment, cells with only compound 1 added, and cells only treated with light.
The error bars in FIG. 10 represent the variations between three replicate determinations.

In assay [5] the test system is S. pyogenes (ATCC No. 8133). Kind of assay: Light-activated killing, colony counts. It is filed as cell-based. The following applies: for Dark Toxicity: no light; for Light Toxicity: white light 2 minutes. As for the experimental part: as §1
The error bars in FIG. 12 represent the variations between three replicate determinations.

T1 sequence (P0A0J7 whole entry): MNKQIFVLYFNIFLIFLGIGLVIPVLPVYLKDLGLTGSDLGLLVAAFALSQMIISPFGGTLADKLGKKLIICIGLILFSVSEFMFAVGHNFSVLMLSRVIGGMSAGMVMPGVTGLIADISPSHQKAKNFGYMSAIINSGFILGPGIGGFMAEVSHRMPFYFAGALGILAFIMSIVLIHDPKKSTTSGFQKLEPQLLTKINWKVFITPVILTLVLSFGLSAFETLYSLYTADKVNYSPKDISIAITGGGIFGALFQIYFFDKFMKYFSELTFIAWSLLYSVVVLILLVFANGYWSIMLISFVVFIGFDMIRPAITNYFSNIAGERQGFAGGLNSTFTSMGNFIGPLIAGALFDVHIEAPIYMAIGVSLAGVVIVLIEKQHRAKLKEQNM

For `Clc1ccc(/C=C/c2[nH]c3ccccc3c2/C=C/c2ccc(Cl)cc2)cc1` [Compound 1], the “competition with INF-55 for binding (fluorescence)” value in assay [1] (INF-55 1-100 μM, FIG. 2) is listed as “able to compete with INF-55 for binding to the efflux pumps of MRSA”. Also, the “competition with reserpine for binding (fluorescence)” value in assay [1] (reserpine 1-100 μM, FIG. 3) is “able to compete with reserpine for binding to the efflux pumps of MRSA”. Also, in assay [2], the “Log Reduction” value is reported as 5-6. Besides, in assay [3], the “binding of compound 1 by cells (fluorescence)” value is on record as “MRSA was able to bind more of compound 1”. In addition, the “Dark Toxicity” value is 1.63 × 10^8 ± 1.72 × 10^7 CFU/mL in assay [4] (0.1 μM); 2.67 × 10^6 ± 2.10 × 10^6 CFU/mL in assay [4] (0.5 μM); 1.34 × 10^6 ± 3.04 × 10^5 CFU/mL in assay [4] (1.0 μM); 7.13 × 10^4 ± 1.80 × 10^4 CFU/mL in assay [4] (5.1 μM); 7.13 × 10^6 ± 1.10 × 10^6 CFU/mL in assay [5] (0.1 μM); 1.40 × 10^6 ± 7.05 × 10^5 CFU/mL in assay [5] (0.5 μM). Besides, the “Dark Toxicity” value is recorded as 4.13 × 10^6 ± 9.07 × 10^5 CFU/mL in assay [5] (1.0 μM) and 5.01 × 10^5 ± 4.07 × 10^5 CFU/mL in assay [5] (5.0 μM). For the same molecule, the “Light Toxicity” value in assay [4] (0.1 μM) is 1.20 × 10^5 ± 5.12 × 10^4 CFU/mL; in assay [4] (0.5 μM), 1.60 × 10^3 ± 1.44 × 10^3 CFU/mL; in assay [4] (1.0 μM), “None detected (<100 CFU/mL)”; in assay [4] (5.1 μM), “None detected (<100 CFU/mL)”; in assay [5] (0.1 μM), “None Detected (<100 CFU/mL)”; in assay [5] (0.5 μM), “None Detected (<100 CFU/mL)”. The “Light Toxicity” value in assay [5] (1.0 μM) and in assay [5] (5.0 μM) was “None Detected (<100 CFU/mL)” throughout.
